Test results as given in patent publication US20250375529A1, “PHOSPHORYLCHOLINE-TUFTSIN CONJUGATE FOR TREATING OCULAR INFLAMMATION” (TARSIER PHARMA LTD., priority 2017, published 2025).

Legend:
[1] = tested on: anti-CD3-activated PBMCs; assay: Effects of TPC on cytokine secretion by anti-CD3-activated PBMCs (Luminex); type: cell-based
Description: FIGS. 1A-1B: Very low dose TPC has a strong immunomodulatory effect. Bar graphs showing the effects of TPC at a range of doses, on anti-CD3-activated PBMCs 48 h after treatment. Secretion of pro-inflammatory cytokine TNFα (1A) and anti-inflammatory cytokine IL-10 (1B) are shown. Column statistics, one-sample t test compared to a hypothetical value of 100 was used. *-P<0.05, **-P<0.01, ***-P<0.005
The immunomodulatory effect of TPC was determined in vitro on PBMCs from healthy donors. PBMCs were harvested and allowed to adhere to culture plates. TPC at various concentrations, or PBS or dexamethasone as controls were then added and an hour later anti-CD3 stimulating antibody was added to induce an inflammatory state. 48 hours later the supernatant was harvested from the cells and cytokine levels were assayed using standard Luminex protocols. Levels of cytokine induction was interpolated from standard curves, using 5-parameter non-linear regression analyses, where y=(A+((B−A)/(1+(((B−E)/(E−A))*((x/C)^D))))). The interpolated data was then normalized to vehicle controls (anti-CD3 stimulation alone). […] Once again, the effect was greatest at very low doses, as the 0.005 μg/ml TPC dose had the strongest effect causing a 33% increase in IL-10 levels. […] (FIG. 1B).

[2] = tested on: THP-1 human monocyte cell line polarized to M1 macrophages; assay: IL-10 secretion by THP-1-derived M1 macrophages; type: cell-based; conditions: THP-1 M0 (100 ng/ml PMA 48 hours) polarized to M1 with 10 ng/ml LPS; TPC 400 ug/ml, dexamethasone 1 uM, IL-4 and IL-13 20 ng/ml; versus PBS control
Description: FIG. 2: TPC enhances the anti-inflammatory effect of steroids. A bar graph showing the effect of IL-4/IL-13, TPC, dexamethasone and dexamethasone+TPC on IL-10 secretion by macrophages. *-P<0.05, **-P<0.01
To test the hypothesis that a combination of steroids and TPC will have a beneficial effect on treating inflammation, cells of the THP-1 human monocyte cell line were differentiated to M0 macrophages with 100 ng/ml PMA for 48 hours and then polarized to M1 macrophages with 10 ng/ml LPS. These cells were then tested with the following compounds: PBS (negative control), IL-4 and IL-13 (20 ng/ml, positive control as they induce the cells to a M2 phenotype), TPC (400 ug/ml), dexamethasone (1 uM), and a combination of dexamethasone (1 uM) and TPC (400 ug/ml). […] Further, since TPC itself reduces pro-inflammatory cytokine secretion as well, it may be used, not just in combination, but to reduce the total dose of steroid administered.

[3] = tested on: lupus prone mice; conditions: subcutaneous (5 μg/mouse) and oral (50 μg/mouse and 250 μg/mouse) administration; cited from earlier work
[4] = tested on: mice with dextran sodium sulfate induced colitis; conditions: subcutaneous (5 μg/mouse) and oral (50 μg/mouse and 250 μg/mouse) administration; cited from earlier work
[5] = tested on: mice with collagen-induced arthritis; conditions: subcutaneous (5 μg/mouse) and oral (50 μg/mouse and 250 μg/mouse) administration; cited from earlier work
[6] = tested on: experimental mouse models of autoimmune diseases; conditions: in the three mouse models; cited from earlier work
[7] = 0.005 μg/ml TPC, PBMCs from healthy donors, anti-CD3 stimulation, supernatant at 48 hours, normalized to vehicle control (anti-CD3 alone)

Tuftsin-PhosphorylCholine [TPC]
increase in IL-10 levels [1, 7]: 33%
lowering of TNFα levels [1, 7]: 41%
increase on IL-10 secretion as compared to dexamethasone ([1]; anti-CD3-activated PBMCs, 48 hours, TPC relative to dexamethasone): 220%
IL-10 expression [2]: strong increase
glomerulonephritis onset [3]: prevented
colitis [4]: reduced
joint damage [5]: prevented
T and B regulatory cells [6]: enhanced expansion
anti-inflammatory IL-10 [6]: increased
proinflammatory cytokine expression such as IL-6, IL-17, TNFα, IFNγ [6]: inhibited
